pIC50: −log10 of the molar value. The source made the active and inactive calls. The rule behind the calls is not given here.
Columns and labels:
[1] = biological target: DNA (cytosine-5)-methyltransferase 1 (Homo sapiens) (UniProt P26358); experiment: Inhibition of C1226 catalytic site of DNMT1 in presence of S-adenosyl methionine
[2] = biological target: DNA (cytosine-5)-methyltransferase 1 (Homo sapiens) (UniProt P26358); experiment: Inhibition of C1226 catalytic site of DNMT1
[3] = biological target: Orphan methyltransferase M.SssI (Spiroplasma monobiae) (UniProt P15840); experiment: Inhibition of Spiroplasma sp. MQ-1 M.SssI up to 100 uM
[4] = biological target: Orphan methyltransferase M.SssI (Spiroplasma monobiae, UniProt P15840); experiment: (§1) Inhibition of Spiroplasma sp. MQ-1 M.SssI
[5] = biological target: Orphan methyltransferase M.SssI (Spiroplasma monobiae) (UniProt P15840); experiment: as §1
MV4-11 [6] = experiment: Induction of global DNA hypomethylation in human MV411 cells at 1 uM after 72 hrs by LC-MS/MS analysis relative to control; type: functional, cell-based
MV4-11 [7] = experiment: Decrease in global DNA methylation in human MV411 cells at 30 uM after 72 hrs by LC-MS/MS analysis relative to control; type: functional; design: scale not given: the % may be the effect or the level left
MV4-11 [8] = experiment: Decrease in global DNA methylation in human MV411 cells at 3 uM after 72 hrs by LC-MS/MS analysis relative to control; type: functional; design: scale not given: the % may be the effect or the level left

Chain of DNA (cytosine-5)-methyltransferase 1 (Homo sapiens) (P26358 whole entry): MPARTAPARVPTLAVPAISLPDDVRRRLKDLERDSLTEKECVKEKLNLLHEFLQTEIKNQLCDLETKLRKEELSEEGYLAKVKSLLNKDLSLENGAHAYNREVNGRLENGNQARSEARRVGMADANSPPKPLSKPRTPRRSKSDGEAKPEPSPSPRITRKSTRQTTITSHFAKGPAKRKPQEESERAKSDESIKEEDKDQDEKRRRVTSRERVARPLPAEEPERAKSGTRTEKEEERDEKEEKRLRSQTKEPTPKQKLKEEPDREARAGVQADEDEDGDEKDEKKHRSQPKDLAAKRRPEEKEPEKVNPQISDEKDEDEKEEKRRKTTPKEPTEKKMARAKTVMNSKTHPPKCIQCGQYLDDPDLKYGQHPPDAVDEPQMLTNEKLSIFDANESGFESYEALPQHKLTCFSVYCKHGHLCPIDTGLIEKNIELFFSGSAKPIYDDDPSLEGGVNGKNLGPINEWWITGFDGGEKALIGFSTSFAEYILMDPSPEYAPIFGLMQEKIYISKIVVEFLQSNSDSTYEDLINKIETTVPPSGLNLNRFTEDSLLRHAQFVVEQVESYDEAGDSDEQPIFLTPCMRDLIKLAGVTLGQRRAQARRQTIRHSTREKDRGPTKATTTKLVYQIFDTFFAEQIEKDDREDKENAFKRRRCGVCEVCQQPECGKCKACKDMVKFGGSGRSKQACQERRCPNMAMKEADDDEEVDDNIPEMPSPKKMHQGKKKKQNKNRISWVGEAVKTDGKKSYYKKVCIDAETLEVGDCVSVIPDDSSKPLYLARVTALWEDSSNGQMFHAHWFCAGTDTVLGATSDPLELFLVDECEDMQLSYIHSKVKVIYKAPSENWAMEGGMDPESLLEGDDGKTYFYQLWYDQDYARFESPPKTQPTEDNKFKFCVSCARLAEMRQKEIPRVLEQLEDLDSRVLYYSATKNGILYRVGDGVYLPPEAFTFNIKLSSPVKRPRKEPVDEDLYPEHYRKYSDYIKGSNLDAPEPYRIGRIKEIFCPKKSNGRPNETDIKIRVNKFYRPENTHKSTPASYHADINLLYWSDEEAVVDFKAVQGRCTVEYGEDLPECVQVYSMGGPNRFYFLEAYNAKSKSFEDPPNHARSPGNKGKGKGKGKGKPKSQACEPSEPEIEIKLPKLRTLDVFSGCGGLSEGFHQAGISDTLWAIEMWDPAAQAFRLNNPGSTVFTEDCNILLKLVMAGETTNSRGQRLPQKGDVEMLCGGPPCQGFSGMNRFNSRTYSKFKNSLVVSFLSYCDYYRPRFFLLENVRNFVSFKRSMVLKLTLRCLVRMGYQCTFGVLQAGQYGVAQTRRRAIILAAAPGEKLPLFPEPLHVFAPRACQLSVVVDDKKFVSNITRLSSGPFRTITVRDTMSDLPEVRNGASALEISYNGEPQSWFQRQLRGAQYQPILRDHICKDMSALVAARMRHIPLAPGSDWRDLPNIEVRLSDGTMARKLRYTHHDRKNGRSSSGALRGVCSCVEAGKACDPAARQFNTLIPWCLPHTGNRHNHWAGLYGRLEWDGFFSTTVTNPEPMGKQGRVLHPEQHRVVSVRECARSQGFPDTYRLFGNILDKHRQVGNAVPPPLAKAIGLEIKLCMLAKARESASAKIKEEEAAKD
Chain of Orphan methyltransferase M.SssI (Spiroplasma monobiae) (P15840 whole entry): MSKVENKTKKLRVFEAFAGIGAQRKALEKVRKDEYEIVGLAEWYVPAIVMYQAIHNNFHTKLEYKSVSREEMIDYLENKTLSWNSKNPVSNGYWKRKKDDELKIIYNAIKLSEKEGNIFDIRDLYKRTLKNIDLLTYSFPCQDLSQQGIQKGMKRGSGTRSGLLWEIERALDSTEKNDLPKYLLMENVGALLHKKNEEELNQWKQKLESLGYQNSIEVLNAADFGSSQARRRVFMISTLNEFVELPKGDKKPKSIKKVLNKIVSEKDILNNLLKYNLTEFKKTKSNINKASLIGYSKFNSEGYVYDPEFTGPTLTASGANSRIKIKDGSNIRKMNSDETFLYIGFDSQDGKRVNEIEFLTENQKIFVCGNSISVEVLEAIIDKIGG
Chain of Orphan methyltransferase M.SssI (P15840 whole entry): as above

Row | SMILES | Activity [1] | Activity [2] | Activity [3] | pIC50 [4] | Activity [5] | Activity (MV4-11 [6]) | Activity (MV4-11 [7]) [%] | Activity (MV4-11 [8]) [%]
1 | COc1cc(CCC(=O)CC(=O)CCc2ccc(O)c(OC)c2)ccc1O | Active | Active |  |  |  |  |  | 
2 | COc1cc(CCC(=O)CC(O)CCc2ccc(O)c(OC)c2)ccc1O (centres undefined) | Active | Active | inactive |  |  |  |  | 
3 | O=C(/C=C/c1ccc(O)cc1)CC(=O)/C=C/c1ccc(O)cc1 [BISDEMETHOXYCURCUMIN] |  | Active |  | 7.52 |  |  |  | 
4 | COc1cc(/C=C/C(=O)CC(=O)/C=C/c2ccc(O)c(OC)c2)ccc1O [CURCUMIN] |  | Active |  |  | Dose-dependent effect | inactive | 15 | 15
5 | COc1cc(/C=C/C(O)=C/C(=O)/C=C/c2ccc(O)cc2)ccc1O [DEMETHOXYCURCUMIN] |  | Active |  | 7.52 |  |  |  | 
